The values below are quoted from earlier work in US20180333418A1, “USE OF PAN FGFR INHIBITORS AND METHOD OF IDENTIFYING PATIENTS WITH CANCER ELIGIBLE FOR TREATMENT WITH A PAN FGFR INHIBITOR” (BAYER PHARMA AKTIENGESELLSCHAFT, priority 2014, published 2018).

Molecules are shown by their SMILES.

The test system of data set [1] is ovarian cancer cell line A2780. The conditions noted are these: Guagnano et al.; cited from earlier work.
Data set [2] relates to FGFR1-amplified osteosarcoma cell line G-292. The conditions noted are these: Guagnano et al.; cited from earlier work.

On to `CCN1CCN(c2ccc(Nc3cc(N(C)C(=O)Nc4c(Cl)c(OC)cc(OC)c4Cl)ncn3)cc2)CC1` [BGJ398], for which, in data set [1], the “sensitivity in vitro towards treatment” value is “sensitive”. For the same compound, the anti-proliferative effects result in data set [2] was “anti-proliferative effects”.
